Data published in the NIST ThermoML archive (doi:10.1016/j.jct.2004.12.014).

Key:
[1] = excess molar enthalpy (molar enthalpy of mixing); xn = mol fraction of the nth substance listed; details: 318.15 K, 101 kPa, Liquid
[2] = xn = mol fraction of the nth substance listed; details: 318.15 K, 101 kPa, Liquid

CCCCCCCCCCCCCCCCC [heptadecane] + CCCOC(=O)CC
Details	excess molar enthalpy [kcal/mol]	excess molar volume [m3/mol]
[1], x2 = 0.1025	0.107	–
[1], x2 = 0.2064	0.193	–
[1], x2 = 0.3097	0.268	–
[1], x2 = 0.4012	0.318	–
[1], x2 = 0.4828	0.345	–
[1], x2 = 0.5438	0.354	–
[1], x2 = 0.5906	0.353	–
[1], x2 = 0.6218	0.348	–
[1], x2 = 0.6489	0.34	–
[1], x2 = 0.6819	0.322	–
[1], x2 = 0.7208	0.3	–
[1], x2 = 0.7615	0.276	–
[1], x2 = 0.8015	0.244	–
[1], x2 = 0.8436	0.205	–
[1], x2 = 0.8861	0.163	–
[1], x2 = 0.9283	0.11	–
[1], x2 = 0.9659	0.0516	–
[2], x2 = 0.0801	–	2.62e-07
[2], x2 = 0.1272	–	4.01e-07
[2], x2 = 0.2396	–	6.78e-07
[2], x2 = 0.3349	–	8.74e-07
[2], x2 = 0.4168	–	9.74e-07
[2], x2 = 0.4924	–	1.046e-06
[2], x2 = 0.5597	–	1.06e-06
[2], x2 = 0.6205	–	1.048e-06
[2], x2 = 0.6702	–	1.016e-06
[2], x2 = 0.7236	–	9.42e-07
[2], x2 = 0.7691	–	8.65e-07
[2], x2 = 0.81	–	7.81e-07
[2], x2 = 0.8486	–	6.76e-07
[2], x2 = 0.8816	–	5.66e-07
[2], x2 = 0.9135	–	4.36e-07
[2], x2 = 0.9437	–	3.04e-07
[2], x2 = 0.972	–	1.85e-07

CCCCCOC(=O)CC [pentyl propanoate] + CCCCCCC
Details	excess molar enthalpy [kcal/mol]	excess molar volume [m3/mol]
[1], x1 = 0.0541	0.0384	–
[1], x1 = 0.1161	0.0728	–
[1], x1 = 0.1808	0.101	–
[1], x1 = 0.2438	0.123	–
[1], x1 = 0.3073	0.141	–
[1], x1 = 0.3672	0.152	–
[1], x1 = 0.4224	0.157	–
[1], x1 = 0.445	0.158	–
[1], x1 = 0.4906	0.159	–
[1], x1 = 0.5414	0.157	–
[1], x1 = 0.5976	0.149	–
[1], x1 = 0.6595	0.137	–
[1], x1 = 0.725	0.119	–
[1], x1 = 0.7935	0.0946	–
[1], x1 = 0.8667	0.0645	–
[1], x1 = 0.9349	0.0338	–
[2], x1 = 0.0556	–	6.6e-08
[2], x1 = 0.1092	–	1.1e-07
[2], x1 = 0.182	–	1.41e-07
[2], x1 = 0.217	–	1.68e-07
[2], x1 = 0.2721	–	1.85e-07
[2], x1 = 0.3275	–	1.96e-07
[2], x1 = 0.3857	–	1.98e-07
[2], x1 = 0.4428	–	1.92e-07
[2], x1 = 0.5013	–	1.78e-07
[2], x1 = 0.5611	–	1.59e-07
[2], x1 = 0.6204	–	1.37e-07
[2], x1 = 0.6824	–	1.03e-07
[2], x1 = 0.742	–	7.7e-08
[2], x1 = 0.8047	–	4.9e-08
[2], x1 = 0.8674	–	2.9e-08
[2], x1 = 0.9323	–	9e-09

CCOC(=O)CC [ethyl propanoate] + CCCCCCC
Details	excess molar enthalpy [kcal/mol]	excess molar volume [m3/mol]
[1], x1 = 0.0724	0.0766	–
[1], x1 = 0.1469	0.142	–
[1], x1 = 0.2238	0.196	–
[1], x1 = 0.294	0.234	–
[1], x1 = 0.3653	0.261	–
[1], x1 = 0.4286	0.273	–
[1], x1 = 0.4855	0.277	–
[1], x1 = 0.5345	0.274	–
[1], x1 = 0.5733	0.267	–
[1], x1 = 0.5847	0.264	–
[1], x1 = 0.6302	0.254	–
[1], x1 = 0.682	0.237	–
[1], x1 = 0.7393	0.213	–
[1], x1 = 0.7978	0.181	–
[1], x1 = 0.8563	0.142	–
[1], x1 = 0.9088	0.0966	–
[1], x1 = 0.963	0.0455	–
[2], x1 = 0.0401	–	1.58e-07
[2], x1 = 0.0797	–	3.09e-07
[2], x1 = 0.1474	–	5.09e-07
[2], x1 = 0.2182	–	6.76e-07
[2], x1 = 0.2873	–	7.86e-07
[2], x1 = 0.3497	–	8.53e-07
[2], x1 = 0.4098	–	8.95e-07
[2], x1 = 0.5276	–	8.77e-07
[2], x1 = 0.5897	–	8.41e-07
[2], x1 = 0.6453	–	7.71e-07
[2], x1 = 0.701	–	7.23e-07
[2], x1 = 0.7534	–	6.41e-07
[2], x1 = 0.808	–	5.27e-07
[2], x1 = 0.8554	–	4.12e-07
[2], x1 = 0.9045	–	2.9e-07
[2], x1 = 0.9534	–	1.5e-07

CCCOC(=O)CC [propyl propanoate] + CCCCCCC
Details	excess molar enthalpy [kcal/mol]	excess molar volume [m3/mol]
[1], x1 = 0.0639	0.0623	–
[1], x1 = 0.1325	0.109	–
[1], x1 = 0.2009	0.149	–
[1], x1 = 0.273	0.179	–
[1], x1 = 0.338	0.198	–
[1], x1 = 0.3985	0.208	–
[1], x1 = 0.4549	0.215	–
[1], x1 = 0.5052	0.218	–
[1], x1 = 0.5147	0.218	–
[1], x1 = 0.5577	0.214	–
[1], x1 = 0.6066	0.207	–
[1], x1 = 0.6615	0.194	–
[1], x1 = 0.7197	0.173	–
[1], x1 = 0.7781	0.147	–
[1], x1 = 0.8381	0.115	–
[1], x1 = 0.8975	0.0783	–
[1], x1 = 0.9534	0.0399	–
[2], x1 = 0.0283	–	9e-08
[2], x1 = 0.066	–	2.02e-07
[2], x1 = 0.1305	–	3.13e-07
[2], x1 = 0.1912	–	4.11e-07
[2], x1 = 0.2529	–	4.97e-07
[2], x1 = 0.3157	–	5.6e-07
[2], x1 = 0.3768	–	5.86e-07
[2], x1 = 0.437	–	6.03e-07
[2], x1 = 0.4973	–	6.01e-07
[2], x1 = 0.5557	–	5.81e-07
[2], x1 = 0.6132	–	5.43e-07
[2], x1 = 0.6703	–	4.91e-07
[2], x1 = 0.7248	–	4.24e-07
[2], x1 = 0.7801	–	3.67e-07
[2], x1 = 0.8355	–	2.94e-07
[2], x1 = 0.8887	–	2.07e-07
[2], x1 = 0.9444	–	1.24e-07

CCCCCOC(=O)CC [pentyl propanoate] + CCCCCCCCCCCCCCCCC
Details	excess molar enthalpy [kcal/mol]	excess molar volume [m3/mol]
[1], x1 = 0.1196	0.103	–
[1], x1 = 0.2114	0.166	–
[1], x1 = 0.3026	0.217	–
[1], x1 = 0.3904	0.251	–
[1], x1 = 0.469	0.269	–
[1], x1 = 0.5373	0.273	–
[1], x1 = 0.5951	0.267	–
[1], x1 = 0.6196	0.26	–
[1], x1 = 0.6625	0.247	–
[1], x1 = 0.7073	0.228	–
[1], x1 = 0.7545	0.203	–
[1], x1 = 0.8044	0.177	–
[1], x1 = 0.8552	0.143	–
[1], x1 = 0.9052	0.101	–
[1], x1 = 0.9542	0.0541	–
[2], x1 = 0.1083	–	2.44e-07
[2], x1 = 0.2045	–	4.6e-07
[2], x1 = 0.2891	–	6.18e-07
[2], x1 = 0.3649	–	6.95e-07
[2], x1 = 0.4391	–	7.63e-07
[2], x1 = 0.5053	–	8.03e-07
[2], x1 = 0.5658	–	7.98e-07
[2], x1 = 0.6233	–	7.82e-07
[2], x1 = 0.6778	–	7.45e-07
[2], x1 = 0.7277	–	6.88e-07
[2], x1 = 0.7752	–	6.07e-07
[2], x1 = 0.8185	–	5.23e-07
[2], x1 = 0.8587	–	4.3e-07
[2], x1 = 0.8969	–	3.33e-07
[2], x1 = 0.9324	–	2.44e-07
[2], x1 = 0.9677	–	1.14e-07

CCCCCCCCCCCCCCC [pentadecane] + CCCOC(=O)CC
Details	excess molar enthalpy [kcal/mol]	excess molar volume [m3/mol]
[1], x2 = 0.0908	0.0969	–
[1], x2 = 0.2077	0.193	–
[1], x2 = 0.3159	0.265	–
[1], x2 = 0.4097	0.309	–
[1], x2 = 0.481	0.33	–
[1], x2 = 0.538	0.336	–
[1], x2 = 0.5826	0.333	–
[1], x2 = 0.6208	0.327	–
[1], x2 = 0.6333	0.322	–
[1], x2 = 0.6724	0.307	–
[1], x2 = 0.7191	0.284	–
[1], x2 = 0.7668	0.255	–
[1], x2 = 0.8087	0.224	–
[1], x2 = 0.8594	0.181	–
[1], x2 = 0.9086	0.128	–
[1], x2 = 0.96	0.0654	–
[2], x2 = 0.0571	–	1.92e-07
[2], x2 = 0.121	–	3.65e-07
[2], x2 = 0.2189	–	6.37e-07
[2], x2 = 0.3124	–	8.36e-07
[2], x2 = 0.3919	–	9.5e-07
[2], x2 = 0.4644	–	1.011e-06
[2], x2 = 0.5327	–	1.042e-06
[2], x2 = 0.5945	–	1.032e-06
[2], x2 = 0.6507	–	9.93e-07
[2], x2 = 0.7004	–	9.51e-07
[2], x2 = 0.7486	–	8.75e-07
[2], x2 = 0.7919	–	7.84e-07
[2], x2 = 0.8316	–	6.85e-07
[2], x2 = 0.8692	–	5.77e-07
[2], x2 = 0.9037	–	4.49e-07
[2], x2 = 0.9384	–	3.2e-07
[2], x2 = 0.9689	–	1.72e-07

CCCCCCCCCCCCCCCCC [heptadecane] + CCC(=O)OC
Details	excess molar enthalpy [kcal/mol]	excess molar volume [m3/mol]
[1], x2 = 0.0946	0.132	–
[1], x2 = 0.2186	0.277	–
[1], x2 = 0.3238	0.387	–
[1], x2 = 0.4115	0.457	–
[1], x2 = 0.4797	0.492	–
[1], x2 = 0.5289	0.508	–
[1], x2 = 0.5687	0.513	–
[1], x2 = 0.5996	0.514	–
[1], x2 = 0.6291	0.509	–
[1], x2 = 0.6637	0.499	–
[1], x2 = 0.6974	0.479	–
[1], x2 = 0.7327	0.451	–
[1], x2 = 0.7677	0.417	–
[1], x2 = 0.8042	0.371	–
[1], x2 = 0.8381	0.328	–
[1], x2 = 0.8741	0.271	–
[1], x2 = 0.909	0.214	–
[1], x2 = 0.9409	0.148	–
[1], x2 = 0.9721	0.0753	–
[2], x2 = 0.0755	–	3.32e-07
[2], x2 = 0.1644	–	6.94e-07
[2], x2 = 0.3049	–	1.182e-06
[2], x2 = 0.409	–	1.452e-06
[2], x2 = 0.5004	–	1.581e-06
[2], x2 = 0.5739	–	1.623e-06
[2], x2 = 0.6379	–	1.592e-06
[2], x2 = 0.6942	–	1.504e-06
[2], x2 = 0.7425	–	1.39e-06
[2], x2 = 0.7831	–	1.271e-06
[2], x2 = 0.8219	–	1.128e-06
[2], x2 = 0.8553	–	9.81e-07
[2], x2 = 0.8846	–	8.56e-07
[2], x2 = 0.9369	–	5.66e-07
[2], x2 = 0.9596	–	4.18e-07
[2], x2 = 0.9803	–	2.34e-07
